Source: ChEMBL document CHEMBL1909046, “DrugMatrix in vitro pharmacology data”

Assays:
[1] = target: T1, Muscarinic acetylcholine receptor M2 (Homo sapiens, UniProt P08172); type: cell membranes, CHO-K1, Membrane; settings: cho-k1; further: in other assays of this panel Not Active means under 50% inhibition at 10 µM
T1 sequence (P08172 whole entry): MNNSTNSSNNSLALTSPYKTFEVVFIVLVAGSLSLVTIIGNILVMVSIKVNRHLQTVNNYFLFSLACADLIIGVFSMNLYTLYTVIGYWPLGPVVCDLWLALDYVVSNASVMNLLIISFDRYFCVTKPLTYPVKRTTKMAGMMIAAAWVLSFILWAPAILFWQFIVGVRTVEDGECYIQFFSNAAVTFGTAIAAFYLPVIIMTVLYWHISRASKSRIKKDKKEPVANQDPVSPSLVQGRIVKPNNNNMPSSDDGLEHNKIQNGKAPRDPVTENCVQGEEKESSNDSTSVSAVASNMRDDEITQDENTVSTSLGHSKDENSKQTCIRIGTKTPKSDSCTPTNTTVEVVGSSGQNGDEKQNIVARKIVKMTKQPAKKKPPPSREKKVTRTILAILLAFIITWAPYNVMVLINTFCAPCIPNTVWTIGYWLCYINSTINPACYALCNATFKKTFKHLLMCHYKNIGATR

Melanocortin receptor 5 = Melanocortin receptor 5 (Homo sapiens, UniProt P33032); type: cell membranes, HEK293, Membrane; settings: hek293; further: in other assays of this panel Not Active means under 50% inhibition at 10 µM
Sequence of Melanocortin receptor 5 (P33032 whole entry): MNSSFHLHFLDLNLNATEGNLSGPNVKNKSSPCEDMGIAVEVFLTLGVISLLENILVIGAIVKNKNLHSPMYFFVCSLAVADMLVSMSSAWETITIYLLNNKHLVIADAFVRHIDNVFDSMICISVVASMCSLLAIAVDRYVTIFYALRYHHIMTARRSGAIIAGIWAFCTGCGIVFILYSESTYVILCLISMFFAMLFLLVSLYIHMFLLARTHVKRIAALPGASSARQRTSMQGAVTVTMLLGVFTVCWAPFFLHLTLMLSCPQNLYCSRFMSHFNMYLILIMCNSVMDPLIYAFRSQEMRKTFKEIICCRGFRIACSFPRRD

Adenosine receptor A3 = target: T2, Adenosine receptor A3 (Homo sapiens, UniProt P0DMS8); type: cell membranes, CHO-K1, Membrane; settings: cho-k1;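 further: radioligand binding assay with AB-MECA serving as the labeled ligand; in other assays of this panel Not Active means under 50% inhibition at 10 µM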
T2 sequence (P0DMS8 whole entry): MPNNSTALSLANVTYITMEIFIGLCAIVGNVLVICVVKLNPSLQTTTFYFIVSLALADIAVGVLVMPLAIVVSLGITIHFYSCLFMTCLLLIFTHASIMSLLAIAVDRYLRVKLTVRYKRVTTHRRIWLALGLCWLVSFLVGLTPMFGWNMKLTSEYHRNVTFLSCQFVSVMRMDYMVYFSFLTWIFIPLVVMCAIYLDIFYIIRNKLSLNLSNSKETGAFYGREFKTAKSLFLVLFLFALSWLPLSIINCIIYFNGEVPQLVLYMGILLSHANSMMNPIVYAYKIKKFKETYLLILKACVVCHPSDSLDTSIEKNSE

[2] = target: T3, Amine oxidase [flavin-containing] A (Homo sapiens, UniProt P21397); experiment: DRUGMATRIX: Monoamine Oxidase MAO-A enzyme inhibition (substrate: Kynuramine); design: species or system BTI-TN-5B1-4; settings: bti-tn-5b1-4; Not Active = under 50% inhibition at 10 µM
T3 sequence (P21397 whole entry): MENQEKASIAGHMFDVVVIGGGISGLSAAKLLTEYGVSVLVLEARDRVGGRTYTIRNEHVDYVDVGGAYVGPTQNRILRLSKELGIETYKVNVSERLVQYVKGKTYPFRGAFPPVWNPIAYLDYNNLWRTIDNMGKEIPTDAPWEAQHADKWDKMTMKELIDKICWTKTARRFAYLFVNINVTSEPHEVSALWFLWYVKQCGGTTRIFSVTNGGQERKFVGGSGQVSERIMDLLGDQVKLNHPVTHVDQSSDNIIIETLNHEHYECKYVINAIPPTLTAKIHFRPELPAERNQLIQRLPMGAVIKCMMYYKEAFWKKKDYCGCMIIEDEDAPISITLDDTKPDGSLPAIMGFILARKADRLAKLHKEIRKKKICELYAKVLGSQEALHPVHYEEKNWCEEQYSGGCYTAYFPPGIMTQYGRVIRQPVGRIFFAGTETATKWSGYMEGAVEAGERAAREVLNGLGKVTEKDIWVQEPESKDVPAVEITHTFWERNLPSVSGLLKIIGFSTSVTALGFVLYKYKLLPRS

[3] = DRUGMATRIX: Platelet-Derived Growth Factor (PDGF) radioligand binding (ligand: [125I] PDGF); type: cell-based; settings: nih3t3; Not Active = under 50% inhibition at 10 µM
Cytochrome P450 1A2 = target: T4, Cytochrome P450 1A2 (Homo sapiens, UniProt P05177); settings: bti-tn-5b1-4; further: in other assays of this panel Not Active means under 50% inhibition at 10 µM
T4 sequence (P05177 whole entry): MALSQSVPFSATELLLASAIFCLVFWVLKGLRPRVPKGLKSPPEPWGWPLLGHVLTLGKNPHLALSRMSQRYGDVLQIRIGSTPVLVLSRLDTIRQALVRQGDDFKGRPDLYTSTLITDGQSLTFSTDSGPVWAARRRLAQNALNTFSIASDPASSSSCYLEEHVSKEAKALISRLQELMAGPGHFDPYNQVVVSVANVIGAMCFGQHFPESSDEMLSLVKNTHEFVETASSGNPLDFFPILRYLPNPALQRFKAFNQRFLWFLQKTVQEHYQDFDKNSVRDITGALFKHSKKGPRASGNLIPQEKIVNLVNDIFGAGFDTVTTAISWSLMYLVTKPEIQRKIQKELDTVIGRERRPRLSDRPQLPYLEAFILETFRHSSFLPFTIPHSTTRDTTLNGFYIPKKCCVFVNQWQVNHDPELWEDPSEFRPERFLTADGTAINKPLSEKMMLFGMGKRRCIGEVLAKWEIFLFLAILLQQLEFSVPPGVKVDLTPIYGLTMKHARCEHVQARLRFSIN

SODIUM ORTHOVANAD
Not Active: IC50 [1] | Ki [1] | IC50 (Melanocortin receptor 5) | Ki (Melanocortin receptor 5) | IC50 (Adenosine receptor A3) | Ki (Adenosine receptor A3) | IC50 [2] | Ki [2] | IC50 [3] | Ki [3] | IC50 (Cytochrome P450 1A2) | Ki (Cytochrome P450 1A2)

O=C(O)c1cn(-c2ccc(F)cc2)c2cc(N3CCNCC3)c(F)cc2c1=O [SARAFLOXACIN]
Not Active: IC50 [1] | IC50 (Melanocortin receptor 5) | IC50 (Adenosine receptor A3) | IC50 [2] | IC50 [3] | Ki [3] | IC50 (Cytochrome P450 1A2) | Ki (Cytochrome P450 1A2)

Nc1cc(N2CCCCC2)nc(N)[n+]1[O-] [MINOXIDIL]
Not Active: IC50 [1] | IC50 (Melanocortin receptor 5) | IC50 (Adenosine receptor A3) | IC50 [2] | IC50 [3] | Ki [3] | IC50 (Cytochrome P450 1A2) | Ki (Cytochrome P450 1A2)

CC(C)NCC(O)c1ccc(NS(C)(=O)=O)cc1 (configuration not stated) [SOTALOL]
Not Active: IC50 [1] | IC50 (Melanocortin receptor 5) | IC50 (Adenosine receptor A3) | IC50 [2] | IC50 [3] | Ki [3] | IC50 (Cytochrome P450 1A2) | Ki (Cytochrome P450 1A2)

CS(=O)(=O)c1ccc([C@@H](O)[C@@H](CO)NC(=O)C(Cl)Cl)cc1 [THIAMPHENICOL]
Not Active: IC50 [1] | IC50 (Melanocortin receptor 5) | IC50 (Adenosine receptor A3) | IC50 [2] | IC50 [3] | Ki [3] | IC50 (Cytochrome P450 1A2) | Ki (Cytochrome P450 1A2)

CCN1CCC[C@H]1CNC(=O)c1cc(S(N)(=O)=O)ccc1OC [LEVOSULPIRIDE]
Not Active: IC50 [1] | IC50 (Melanocortin receptor 5) | IC50 (Adenosine receptor A3) | IC50 [2] | IC50 [3] | Ki [3] | IC50 (Cytochrome P450 1A2) | Ki (Cytochrome P450 1A2)

CC(c1cc2ccccc2s1)N(O)C(N)=O (configuration not stated) [ZILEUTON]
Not Active: IC50 [1] | IC50 (Melanocortin receptor 5) | IC50 (Adenosine receptor A3) | IC50 [2] | IC50 [3] | Ki [3] | IC50 (Cytochrome P450 1A2) | Ki (Cytochrome P450 1A2)

CC[C@@H](C(=O)[C@@H](C)[C@@H](O)[C@H](C)[C@@H]1O[C@@H]([C@@H](CC)C(=O)O)CC[C@@H]1C)[C@H]1O[C@]2(C=C[C@@H](O)[C@]3(CC[C@@](C)([C@H]4CC[C@](O)(CC)[C@H](C)O4)O3)O2)[C@H](C)C[C@@H]1C [SALINOMYCIN]
Not Active: IC50 [1] | IC50 (Melanocortin receptor 5) | IC50 (Adenosine receptor A3) | IC50 [2] | IC50 [3] | Ki [3] | IC50 (Cytochrome P450 1A2) | Ki (Cytochrome P450 1A2)

CO[C@@H]1[C@@H](OC)[C@H](C)[C@@](O)(CC(=O)O)O[C@H]1[C@H](C)[C@H]1O[C@@]2(CC[C@@](C)([C@H]3CC[C@@](C)([C@@H]4O[C@@H]([C@H]5O[C@](C)(O)[C@H](C)C[C@@H]5C)C[C@@H]4O[C@@H]4C[C@H](OC)[C@@H](OC)[C@H](C)O4)O3)O2)C[C@H](O)[C@H]1C [MADURAMICIN ACID]
Not Active: IC50 [1] | IC50 (Melanocortin receptor 5) | IC50 (Adenosine receptor A3) | IC50 [2] | IC50 [3] | Ki [3] | IC50 (Cytochrome P450 1A2) | Ki (Cytochrome P450 1A2)

CC(C)Cc1ccc([C@@H](C)C(=O)O)cc1 [(R)-IBUPROPHEN]
Not Active: IC50 [1] | IC50 (Melanocortin receptor 5) | IC50 (Adenosine receptor A3) | IC50 [2] | IC50 [3] | Ki [3] | IC50 (Cytochrome P450 1A2) | Ki (Cytochrome P450 1A2)

O=C1C(CC[S+]([O-])c2ccccc2)C(=O)N(c2ccccc2)N1c1ccccc1 (configuration not stated) [SULFINPYRAZONE]
Not Active: IC50 [1] | IC50 (Melanocortin receptor 5) | IC50 (Adenosine receptor A3) | IC50 [2] | IC50 [3] | Ki [3] | IC50 (Cytochrome P450 1A2) | Ki (Cytochrome P450 1A2)

CO[C@H]1/C=C/O[C@@]2(C)Oc3c(C)c(O)c4c(O)c(c(/C=N/N5CCN(C6CCCC6)CC5)c(O)c4c3C2=O)NC(=O)/C(C)=C\C=C\[C@H](C)[C@H](O)[C@@H](C)[C@@H](O)[C@@H](C)[C@H](OC(C)=O)[C@@H]1C [RIFAPENTINE]
Not Active: IC50 [1] | IC50 (Melanocortin receptor 5) | IC50 (Adenosine receptor A3) | IC50 [2] | IC50 [3] | Ki [3] | IC50 (Cytochrome P450 1A2) | Ki (Cytochrome P450 1A2)

Cn1c(=O)c2nc[nH]c2n(C)c1=O.O [THEOPHYLLINE]
Not Active: IC50 [1] | IC50 (Melanocortin receptor 5) | IC50 (Adenosine receptor A3) | IC50 [2] | IC50 [3] | Ki [3] | IC50 (Cytochrome P450 1A2) | Ki (Cytochrome P450 1A2)

CCCCOc1cc(CC2CNC(=O)N2)ccc1OC (configuration not stated) [RO-201724]
Not Active: IC50 [1] | IC50 (Melanocortin receptor 5) | IC50 (Adenosine receptor A3) | IC50 [2] | IC50 [3] | Ki [3] | IC50 (Cytochrome P450 1A2) | Ki (Cytochrome P450 1A2)

CN(C/C=C/C#CC(C)(C)C)Cc1cccc2ccccc12 [TERBINAFINE]
Not Active: IC50 [1] | IC50 (Melanocortin receptor 5) | IC50 (Adenosine receptor A3) | IC50 [2] | IC50 [3] | Ki [3] | IC50 (Cytochrome P450 1A2) | Ki (Cytochrome P450 1A2)

O=C1Nc2ccc(Cl)cc2C(c2ccccc2Cl)=NC1O (configuration not stated) [LORAZEPAM]
Not Active: IC50 [1] | IC50 (Melanocortin receptor 5) | IC50 (Adenosine receptor A3) | IC50 [2] | IC50 [3] | Ki [3] | IC50 (Cytochrome P450 1A2) | Ki (Cytochrome P450 1A2)
